Entries after “also recorded” stand apart in the source; their conditions may differ.
Key:
Assay type in all cases: in vivo, female Sprague-Dawley rats
[1] = tested on: chemically induced bladder hyperactivity; experiment: Cystometrogram (CMG): liposomes of various lipids infused in the presence of KCl after protamine sulfate (Examples 1-4)
Source text: Bladder reflex activity in thirty-four (34) female Sprague-Dawley rats (200-250 g) was studied by cystometry performed under anesthesia with urethane (1.2 g/kg) administered by subcutaneous injection. Body temperature was maintained in the physiologic range using a heating lamp. A transurethral bladder catheter (PE-50) connected by a three-way stopcock to a pressure transducer and to a syringe pump was used to record intravesical pressure and to infuse solutions into the bladder. A control cystometrogram (CMG) was performed by slowly filling the bladder with saline at a rate of 0.04 ml/min to elicit repetitive voiding. The bladder contraction frequency of the reflex bladder contractions were recorded. After performing control CMGs with saline infusion for 3 hours, protamine sulfate (PS) (Sigma Chemical; 10 mg/ml) was infused at a rate of 0.04 ml/min for 1 hour to increase epithelial permeability followed by infusion of the irritant KCl (500 mM) for 1 hour. Subsequently, liposomes made from lipids of various compositions then were infused in the presence of a high concentration of KCl for 2 hours.
The effect of charge on the lipid headgroup in reducing bladder activity in three animal groups (n=5) was determined. Neutrally charged liposomes prepared with L-α-PC (a zwitterionic lipid egg PC) were compared against liposomes having either a positively or negatively charged polar headgroup, namely, 1,2-dioleoyl-3-trimethylammonium-propane (DOTAP) and 1-α-phosphatidylserine (POPS), respectively.
Liposomes were prepared as described by Kirby and Gregoriadis (Kirby, C. J. and Gregoriadia, G., “A simple procedure for preparing liposomes capable of high encapsulation efficiency under mild conditions,” Liposome Technology, G. Gregnoriadis, Ed., C.R.C. Press, Inc., Boca Raton, Fla., 1984, Vol. 1, p. 20, 1984). Briefly, liposomes were constructed as a 2:1 molar ratio of L-α-phosphatidylcholine and cholesterol (Sigma Chemical Co., St. Louis, Mo.) to a final lipid concentration of 1-2 mg/ml in saline. Lipids in chloroform were dried down together in the proper ratio under nitrogen. The residues were reconstituted as liposomes in saline or 500 mM KCl by intense sonication. This lipid composition produced liposomes with no net charge.
Statistical analyses were performed using Student's t test for paired or unpaired data, where applicable. A P-value less than 0.05 was considered significant. All data were expressed as means±S.E. (standard error).
Neutrally charged liposomes prepared with sphingomyelin were compared against liposomes prepared from dihydrosphingomyelin and two pure synthetic lipids: 1,2-distearoyl-sn-glycero-3-phosphocholine (DSPC) and 1,-oleoyl-2-stearoyl-sn-glycero-3-phosphocholine (OSPC).
The methodology of this investigation is the same as described above in Example 1 with the exception that the preparation of liposomes was modified from Example 1. Briefly, liposomes were constructed as a 2:1 molar ratio of sphingomyelin and cholesterol (Sigma Chemical Co., St. Louis, Mo.) to a final lipid concentration of 1-2 mg/ml in saline. Lipids in chloroform were dried down together in the proper ratio under nitrogen. The residues were reconstituted as liposomes in saline or 500 mM KCl by intense sonication. This lipid composition produced sphingomyelin liposomes with no net charge.
Sphingomyelin devoid of its phosphorylcholine head group generates the molecule ceramide, a well known lipid second messenger which mediates a wide range of cellular responses to external stimuli, and also is used for the biosynthesis of sphingomyelin and glycosphingolipids. Because ceramide cannot form stable liposomes by itself, its effect on bladder hyperactivity was tested by including it at 1 mol % in an inert lipid, namely, 1,2-distearoyl-sn-glycero-3-phosphocholine (DSPC).
The methodology of this investigation is the same as described above in Example 1 with the exception that the preparation of liposomes was modified from Example 1. […]

[2] = tested on: hyperactive bladder (PS/KCl); experiment: Continuous CMG, hyperactive bladder induced by PS/KCl (Examples 5-6)
Method: (§1) This was followed by instillation of liposomes (LP) in saline (in the case of the former) or LP/KCl.
(§2) Intravesical bladder pressure was recorded via a transurethral catheter in adult female Sprague-Dawley rats anesthetized with urethane (1.2 g/kg) administered by subcutaneous injection (sc). Some animals were pretreated with capsaicin (125 mg/kg, sc) four days prior to the experiments. […] Parameters measured included intercontraction interval (ICI), amplitude of bladder contractions, compliance and micturition pressure threshold (PT).
(§3) Animal Preparation. Thirty-four female Sprague-Dawley rats (250-300 g) were used in this study. Animals were anesthetized with urethane (1.2 g/kg, sc). Body temperature was maintained in the physiological range using a heating lamp.
(§4) Cystometrogram (CMG). A transurethral bladder catheter (PE-50) was connected via a three-way stopcock to a pressure transducer and to a syringe pump. This was used to record intravesical pressure and to infuse solutions into the bladder. A control CMG was performed by slowly filling the bladder with saline (0.04 ml/min) to elicit repetitive voiding. The parameters recorded were amplitude, PT, compliance, and ICI of reflex bladder contractions. Measurements in each animal represented the average of 3 to 5 bladder contractions.
(§5) Induction of a Hyperactive Bladder. […] L. Cheng et al., 1993, Am. J. Physiol. 265:R132-138). The experimental design is illustrated in FIG. 7. The KCl concentration used was within the range of concentrations present in normal rat urine (M. Ohnishi et al., 2001, Toxicol. Appl. Pharmacol. 174:122-129).
(§6) Preparation of Liposomes (LP). LP were prepared as described by Kirby and Gregoriadis (C. J. Kirby and G. Gregoriadia, 1984, “A simple procedure for preparing liposomes capable of high encapsulation efficiency under mild conditions,” Liposome Technology; G. Gregnoriadis, Ed., C.R.C. Press, Inc., Boca Raton, Fla., Vol. 1, p. 20). Briefly, LP were constructed as a 2:1 molar ratio of L-α-phosphatidylcholine and cholesterol (Sigma Chemical Co., St. Louis, Mo.) to a final lipid concentration of 2 mg/ml in saline. Lipids in chloroform were dried down together in the proper ratio under nitrogen. The residues were reconstituted as LP in saline or 500 mM KCl by intense sonication.
(§7) Statistical Analyis. Statistical analyses were performed using Student's t test for paired or unpaired data, where applicable. A p-value less than 0.05 was considered significant. All data are expressed in Example 2 (below) as means±S.E.

[3] = tested on: acute hyperactive bladder; experiment: Continuous CMG, acute hyperactive bladder model with intravesical PS and KCl (Examples 7-8)
Method: An animal model for acute hyperactive bladder in rats was developed using intravesical infusion of PS, an agent used to break down urothelial barrier function and physiological concentrations of KCl.
Continuous CMGs were performed in urethane-anesthetized female rats. The bladder was filled (0.04 ml/min) with normal saline followed by intravesical infusion for a 60 minute period with a test solution comprising either KCl (100 or 500 mM) or PS (10 or 30 mg/ml). Following this, 10 mg/ml PS treated animals were infused intravesically with 100, 300 or 500 mM KCl. Some animals were pretreated with capsaicin ([…], sc) four days before the experiments.
Animal Preparation. The study was performed on 40 female Sprague-Dawley rats weighing 250-300 gm. Animals were anesthetized with 1.2 gm/kg urethane injected subcutaneously. Body temperature was maintained in the physiological range using a heating lamp.
Cystometrogram (CMG). PE-50 tubing (Clay-Adams, Parsippany, N.J.) was inserted into the bladder through the urethra and connected via a three-way stopcock to a pressure transducer and to a syringe pump. This was used for recording intravesical pressure and for infusing solutions into the bladder. A control CMG was performed by slowly filling the bladder with saline (0.04 ml/min) to elicit repetitive voiding. The amplitude, PT, compliance and intercontraction interval (ICI) of reflex bladder contractions were recorded. Pressure threshold (PT) represents the pressure that induces the initial bladder contraction. PT often has been used as a parameter corresponding to afferent nerve activity for the induction of reflex bladder contractions. Measurements in each animal represented the average of 3 to 5 bladder contractions.
After performing control CMGs with saline infusion, three intravesical infusion experiments were performed in parallel: (1) infusion of KCl (100 or 500 mM in saline) for one hour (N=4 in each group); (2) infusion of PS (Sigma Chemical Co.; 30 mg/ml in saline) for one hour (N=6); and (3) infusion of PS (10 mg/ml) for one hour, followed by 100, 300 or 500 mM KCl for one hour (N=6, in each subgroup). In four animals, capsaicin dissolved in a vehicle containing 10% ethanol, 10% TWEEN®80 and 80% physiological saline, at a concentration of 20 mg/ml was given subcutaneously in divided doses on 2 consecutive days. The doses included 25 and 50 mg/kg at a 12-hour interval on the first day and 50 mg/kg on the second day, as previously described (C. L. Cheng et al., 1993, Am. J. Physiol. 265:R132-138). All injections were performed under halothane anesthesia. Four days after the last dosage of capsaicin, the animals were anesthetized and treated with intravesical administration of PS (10 mg/ml) for 1 hour followed by KCl (500 mM) infusion.
Suppression of Micturition Reflex. To evaluate the direct effects of potassium on detrusor muscle, micturition reflex was blocked in 4 animals by either intravenous hexamethonium injection (25 mg/kg) (N=2) or transection of bilateral pelvic nerves (N=2).
Statistical Analysis. Statistical analyses were performed using Student's t test for paired or unpaired data, as applicable, with p<0.05 considered significant. Quantitative data are expressed in Example 8 (below) as means plus or minus standard error.

[4] = tested on: hyperactive bladder (acetic acid); experiment: Continuous CMG, hyperactive bladder induced by acetic acid (Examples 5-6)
Method: as §1, §2, §3, §4, §5, §6, §7

[5] = Table 1A: PS 10 mg/ml infusion 1 hour after saline, N=6
[6] = AA 1 hr in capsaicin pretreated rats, N=4
[7] = AA 2 hr in capsaicin pretreated rats, N=4
[8] = AA at 1 hour, capsaicin pretreated animals
[9] = AA at 2 hours, capsaicin pretreated animals
[10] = Table 2A series: saline, AA 0.1% 1 h, LP 2 h, N=6
[11] = Table 2B series: saline, AA 0.1% 1 h, saline, N=6
[12] = Table 2C series: saline, LP 1 h, AA 1 h, N=6

CCCCCCCCCCCCC/C=C/[C@@H](O)[C@@H](N)COP(=O)(O)O [sphingosine 1-phosphate]
effect on efficacy of DSPC liposomes in reducing bladder contraction frequency ([1]; included at 1 mol % in DSPC liposomes): did not show a similar beneficial effect
effect on efficacy of DSPC liposomes in reducing bladder contraction frequency ([1]; included in DSPC at 1-5 mol % (data not shown)): equally effective as ceramide and sphingosine

protamine sulfate [PS]
Amplitude [2, 5]: 27.5 ± 0.7 cm H2O
Compliance [2, 5]: 0.210 ± 0.031 ml/cm H2O
ICI [2, 5]: 14.9 ± 1.7 min
PT [2, 5]: 5.9 ± 0.9 cm H2O
change of ICI / CMGs ([2]; infused alone: PS 10 mg/ml or KCl 500 mM): not changed; also recorded: did not significantly change the CMGs
Amplitude ([3]; 10 mg/ml PS, one hour, N=18): 25.3 ± 2.0 cm H2O
Compliance ([3]; 10 mg/ml PS, one hour, N=18): 0.176 ± 0.013 ml/cm H2O
ICI ([3]; 10 mg/ml PS, one hour, N=18): 17.8 ± 0.7 min
PT ([3]; 10 mg/ml PS, one hour, N=18): 3.4 ± 0.9 cm H2O
Amplitude ([3]; 30 mg/ml PS, one hour, N=6): 28.3 ± 3.1 cm H2O
Compliance ([3]; 30 mg/ml PS, one hour, N=6): 0.083 ± 0.022 ml/cm H2O
ICI ([3]; 30 mg/ml PS, one hour, N=6): 2.7 ± 0.7 min
PT ([3]; 30 mg/ml PS, one hour, N=6): 7.8 ± 1.1 cm H2O
ICI decrease ([3]; PS 30 mg/ml): 80.6%
PT increase ([3]; PS 30 mg/ml): 36.8%
compliance decrease ([3]; PS 30 mg/ml): 63.6%
delay to irritative effect ([3]; PS 30 mg/ml): 40 to 45 min
bladder hyperactivity ([3]; high concentrations of PS): induced bladder hyperactivity (decreased ICI)
irritative effects / CMG parameters ([3]; low concentration of PS (10 mg/ml), one hour): not observed; also recorded: no significant change; also recorded: produced no effect

CC(=O)O [AA, acetic acid]
compliance reduction ([4]; AA 0.1%, two series of experiments): 71-76%
ICI ([4]; AA 1 hr in capsaicin pretreated rats (125 mg/kg sc, four days before), N=4): 10.2 ± 3.0 min
Amplitude [4, 6]: 20.9 ± 2.5 cm H2O
Compliance [4, 6]: 0.152±0.028 ml/cm H2O
PT [4, 6]: 6.7 ± 0.2 cm H2O
Amplitude [4, 7]: 23.6 ± 5.7 cm H2O
Compliance [4, 7]: 0.082±0.024 ml/cm H2O
ICI [4, 7]: 4.6 ± 1.2 min
PT [4, 7]: 6.7 ± 0.7 cm H2O
ICI reduction [4, 8]: 51%
compliance reduction [4, 8]: 33%
ICI decrease [4, 9]: 78%
compliance decrease [4, 9]: 64%
Amplitude change ([4]; AA infusion): slight increase
PT change ([4]; AA infusion): not significantly changed
bladder hyperactivity in CMG tracings / summary ([4]; FIGS. 10A-10F, summary of Examples 5-6): elicited bladder hyperactivity
Amplitude [4, 10]: 36.8 ± 6.5 cm H2O
Compliance [4, 10]: 0.071±0.016 ml/cm H2O
ICI [4, 10]: 2.4 ± 0.5 min
PT [4, 10]: 8.3 ± 0.9 cm H2O
Amplitude [4, 11]: 37.0 ± 7.0 cm H2O
Compliance [4, 11]: 0.079±0.026 ml/cm H2O
ICI [4, 11]: 2.9 ± 0.9 min
PT [4, 11]: 9.1 ± 1.4 cm H2O
Amplitude [4, 12]: 38.0 ± 1.3 cm H2O
Compliance [4, 12]: 0.071 ± 0.022 ml/cm H2O
ICI [4, 12]: 3.1 ± 0.8 min
PT [4, 12]: 6.7 ± 0.7 cm H2O
time until irritative effect evident ([4]; following AA infusion): 20 to 30 min

From patent publication US8110217B2, “Sphingomyelin liposomes for the treatment of hyperactive bladder disorders” (priority 2001, dated 2012)
